Results taken from US20160310448A1, “Adamantane or Pinene Derivatives for Use in the Treatment of Chlamydiales Infections” (Commissariat a l'Energie Atomique et aux Energies …, priority 2015, published 2016).
“Also recorded” adds a separate entry of the source.

Columns and labels:
Format in all cases: cell-based
[1] = test system: Simkania negevensis (Sn) strain Z; assay: Sn infectivity assays (primary and progeny infection) in HeLa229 cells
Protocol: Simkania negevensis (Sn) strain Z (ATCC VR-1471) was prepared as described previously (Mehlitz A, Karunakaran K, Herweg J A, Krohne G, van de Linde S, Rieck E, Sauer M, Rudel T. The chlamydial organism Sn forms ER vacuole contact sites and inhibits ER-stress. Cell Microbiol 2014; 16(8):1224-1243).
Briefly, HeLa229 cells were grown to 50-70% confluence, were inoculated with Sn in RPMI1640 with 5% FBS, for 6 h at 35° C. in a humidified incubator at 5% CO2. Medium was replaced by infection medium (RPMI1640, Glutamax, 5% FBS, w/o HEPES) and growth was allowed for 3 days. Cells were mechanically detached and bacteria were released using ˜2-5 mm glass beads (Carl Roth). Low speed supernatant (600×g, 4° C. and 5 min) was subjected to high-speed centrifugation (20,000×g, 4° C. and 30 min) to pellet bacteria. Bacteria were washed twice with 5 ml SPG (250 mM sucrose, 50 mM sodium phosphate, 5 mM glutamate, pH 7.4), aliquoted and stored at '80° C. in SPG.
40,000 HeLa cells were seeded in 12-well cluster plates, inhibitor-treated and infected as indicated in the respective experiment.
For infectivity assays cells were either fixed and stained at indicated time points (FIGS. 2,4; inclusion formation/primary infection) or bacteria were released via one freeze thaw cycle (−70° C./37° C.) followed by mechanical release through pipetting and transfer to fresh HeLa229 cells (1:25-1:50, progeny/infectivity). Cells were centrifuged for 1 h at 35° C. and medium exchanged to infection medium. Progeny was fixed at day 3 post infection and processed for staining (FIG. 3) or harvested for immunoblotting (FIG. 1). Infectivity assays were imaged on an automated fluorescence microscope Leica DMIR (FIG. 4). Numbers and average sizes of the SCV as well as host cell numbers were determined via GroEL and DAPI staining and images were analysed and quantified using FIJI (ImageJ) and Excel (Microsoft).
In this progeny assay, bacteria are first grown in Hela299 cells treated with inhibitors (compound 20 at a concentration of 50 and 75 μM) and the infectious particles from this primary infection are applied to fresh cells in the absence of inhibitor to measure the bacterial load (GroEL immunoblot) and inclusion formation (immunofluorescence microscopy).

[2] = test system: Chlamydia trachomatis (Ctr) strain L2/434/Bu; assay: Chlamydia trachomatis (Ctr) infectivity assay, HSP60 immunoblot of primary and progeny infection in HeLa229 cells
Text: (§1) Chlamydia trachomatis (Ctr). Laboratory-adapted strain L2/434/Bu (ATCC VR902B) was used in assays. Full biological and genetic information is available for this strain including complete genome sequence and defined proteome. This strain has a relatively low particle to infectivity ratio, perform efficient cell infection and has a higher viability than standard genital tract isolates with faster developmental cycle. Culture conditions have been described in (Wang Y., Kahane S., Cutcliffe L. T., Skilton R. J., Lambden P. R., Clarke I. N. Development of a transformation system for Chlamydia trachomatis: Restoration of glycogen biosynthesis by acquisition of a plasmid shuttle vector. PLoS Pathogen, 2011, 7(9):e1002258. doi: 10.1371/journal.ppat.1002258).
Compound application during Ctr infection. HeLa229 cells were pretreated with compound 20 in concentrations of 25, 50 and 75 μM for 30 min until Ctr (MOI1) were added to the cells. Compound 20 was present during infection.
Cells with primary infection were lysed 24 h post infection (hpi). To obtain progeny infection compound treated cells were lysed 48 hpi and lysate was used to infect fresh HeLa229 cells. Progeny infection was lysed 24 hpi and analyzed together with primary infection samples by immunoblot. Chlamydial growth was detected with antibodies against chlamydial HSP60 protein and Actin was used as loading control (FIG. 6).

[3] = test system: Chlamydia trachomatis (Ctr) strain L2/434/Bu; assay: microbe, parasite or virus in culture; settings: for inhibition at 25 µM / inhibition at 75 µM: Chlamydia trachomatis, HeLa 229, progeny infection, HeLa229, MOI1, versus solvent-treated cells; for inhibition at 25 µM: read-out: Cellular protection at 25 μM; for inhibition at 75 µM: read-out: Cellular protection at 75 μM; for protection against Ctr progeny infection at 75 μM (in words) / protection against Ctr progeny infection at 25 μM (in words): HeLa229; for protection against Ctr progeny infection at 75 μM (in words): FIG. 7 and Table 1; for protection against Ctr progeny infection at 25 μM (in words): Table 1
Protocol: HeLa229 (ATCC CCL-2.1). Cells were grown in RPMI1640 medium (Glutamax, 10% FBS, w/o HEPES) (Invitrogen).
as §1
Compound application during Chlamydia trachomatis infection. HeLa229 cells were pretreated with compound #20 and its derivatives in concentrations of 25 μM and 75 μM for 1 hour until Chlamydia trachomatis (MOI1) were added to the cells. Compounds were present during infection. To obtain progeny infection, compound treated cells were lysed 24 h post infection (hpi) and lysate was used to infect fresh HeLa 229 cells.
Infected cells of progeny infection were fixed with 4% Paraformaldehyde 48 hpi. Cells were stained for DAPI and Chlamydia trachomatis were detected by GFP-signal. Images are representative of n=2 independent experiments. Quantification of infected cells by Chlamydia trachomatis was realized from microscopy images with Image J software (FIG. 7) and cellular protection by compounds at 25 μM and 75 μM was then determined (Table 1) by comparison with solvent-treated cells (control) with the following equation: […]

| Compound | effect on Sn progeny infection ([1]; HeLa cells, 50 and 75 μM, GroEL immunoblot, relative inclusion number) | effect on Sn primary infection ([1]; HeLa cells, 50 and 75 μM, relative inclusion size, fluorescence microscopy) | concentration of maximal inhibition of Sn replication ([1]; HeLa cells, FIGS. 1, 2, 3 and 4) | subcellular structure of Sn inclusions by transmission electron microscopy ([1]; infected HeLa cells, versus DMSO-treated control) | effect on Ctr progeny infection at 50 μM ([2]; 50 μM, HSP60 immunoblot) | effect on Ctr progeny infection at 75 μM ([2]; 75 μM, HSP60 immunoblot) | effect on chlamydial development (primary Ctr infection) ([2]; 25, 50 and 75 μM, HSP60 immunoblot 24 hpi) | inhibition at 25 µM [3] | inhibition at 75 µM [3] | protection against Ctr progeny infection at 75 μM (in words) [3] | protection against Ctr progeny infection at 25 μM (in words) [3] |
| --- | --- | --- | --- | --- | --- | --- | --- | --- | --- | --- | --- |
| COc1ccc(Br)cc1CNC12CC3CC(CC(C3)C1)C2 [Compound 20, (3S,5S,7S)-N-(5-bromo-2-methoxybenzyl)adamantan-1-amine] | inhibitor effect; also recorded: inhibits | inhibitor effect; also recorded: inhibits | 75 µM | dramatically smaller and less sub-vacuoles and just few bacteria; also recorded: the number of Sn inclusions is reduced and the vacuole size is much reduced | strongly reduced amounts of Ctr in the progeny | totally blocked progeny infection | slight inhibitory effect | 19.9% | 75.7% | – | – |
| COc1ccc(Br)cc1CNC12CC3CC(C)(CC(C)(C3)C1)C2 [RN-2-103, (1R,3R,5S,7R)-N-(5-bromo-2-methoxybenzyl)-3,5-dimethyladamantan-1-amine] | – | – | – | – | – | – | – | 66.9% | 100% | full protection | – |
| COc1ccc(Br)cc1CN[C@H]1C[C@H]2C[C@@H]([C@@H]1C)C2(C)C [VP332, (1S,2S,3S,5R)-N-(5-bromo-2-methoxybenzyl)-2,6,6-trimethylbicyclo[3.1.1]heptan-3-amine] | – | – | – | – | – | – | – | 100% | 100% | full protection | full protection |
| COc1ccc(I)cc1CN[C@H]1C[C@H]2C[C@@H]([C@@H]1C)C2(C)C [VP386, (1S,2S,3S,5R)-N-(5-iodo-2-methoxybenzyl)-2,6,6-trimethylbicyclo[3.1.1]heptan-3-amine] | – | – | – | – | – | – | – | 100% | 100% | full protection | full protection |
| C[C@@H]1[C@@H](NCc2ccc(I)cc2)C[C@H]2C[C@@H]1C2(C)C [VP390, (1S,2S,3S,5R)-N-(4-iodobenzyl)-2,6,6-trimethylbicyclo[3.1.1]heptan-3-amine] | – | – | – | – | – | – | – | 91.8% | 100% | full protection | – |
| O=C(Nc1ccc(S(=O)(=O)Nc2nccs2)cc1)C12CC3CC(CC(C3)C1)C2 [m3, (3R,5R,7R)-N-(4-(N-(thiazol-2-yl)sulfamoyl)phenyl)adamantane-1-carboxamide] | – | – | – | – | – | – | – | 46.9% | 87.8% | – | – |
| O=C(N/N=C/c1cccc([N+](=O)[O-])c1)NC12CC3CC(CC(C3)C1)C2 [m4, N-((3S,5S,7S)-adamantan-1-yl)-2-((E)-3-nitrobenzylidene)hydrazine-1-carboxamide] | – | – | – | – | – | – | – | 22.8% | 81.6% | – | – |
| O=C(CC12CC3CC(CC(C3)C1)C2)N/N=C/c1ccc([N+](=O)[O-])o1 [m9, 2-((3R,5R,7R)-adamantan-1-yl)-N′-((E)-(5-nitrofuran-2-yl)methylene)acetohydrazide] | – | – | – | – | – | – | – | 100% | 100% | full protection | full protection |
